In US20100227841A1, “Patient populations and treatment methods” (Harbor BioSciencs, Inc., priority 2008, published 2010):

Experiments:
[1] = test system: pre-diabetic hyperglycemic patients and patients having type 2 diabetes; assay: Glucose clamp (M value) in 28-day clinical trial of oral capsules; type: in vivo, human
Experimental: Groups of pre-diabetic hyperglycemic patients and patients having type 2 diabetes were treated for 28 days with the experimental drug 17α-ethynylandrost-5-ene-3β,7β,17β-triol (oral capsules) or with placebo. […] Placebos were obtained with each treatment cohort based on protocol randomization of 2 treated:1 placebo. The pre-diabetic patients were obese (body mass index ≧29 kg/m^2) and glucose intolerant (fasting plasma glucose <126 mg/dL; 2-hr post prandial glucose 140-200 mg/dL after 75 g oral glucose). The diabetic patients were dosed with 10 mg/day for 28 days (n=6; cohort 6). […] Patients with an M value of <5 mg glucose/kg/min (M<5) were considered insulin resistant and patients with an M value of >5 mg glucose/kg/min (M>5) were considered insulin sensitive or essentially normal for whole body glucose metabolism.
The analysis of responders used standard analysis. Due to the cohort sizes and the ongoing basis of this clinical protocol, data for surrogates that corresponded to significance at p≦0.10 (trend) were considered positive evidence of surrogacy of the biomarker for the M<5 insulin resistant condition.

[2] = test system: Zucker Diabetic Fatty (ZDF) rats; assay: Zucker Diabetic Fatty (ZDF) rat study (glucose, clamp, adipose histology, lipid profiles); type: in vivo
Experimental: The study was staggered into 6 cohorts conducted on different days. Forty-two male Zucker Diabetic Fatty (ZDF) rats and six Zucker Fatty rats at 7-week of age were obtained from Charles River laboratories (Wilmington, Mass.). The rats were housed individually in polycarbonate cages in a temperature-controlled room on a 12 h: 12 h light: dark cycle with the lights on at 0600 h. Rats were fed ad libitum except during the experiments. After one week of acclimation to environmental conditions, the ZDF rats began daily oral treatment for 32 to 35 days with vehicle (n=18), 100 mg/kg/day 17α-ethynylandrost-5-ene-3β,7β,17β-triol (n=15), or 10 mg/kg/day rosiglitazone (n=9).
Glucose levels were measured using a One-Touch glucometer (Lifescan). Extra serum samples were collected for free fatty acid (FFA), free glycerol, pyruvate, and lactate measurements. Glucose, insulin and pyruvate tolerance tests were performed on 6 hr fasted rats. For GTT, animals were orally gavaged with glucose (1 g/kg), whereas for ITT, 0.35 units/kg insulin (Novolin R, Novo-Nordisk) was injected intraperitoneally. Blood samples were taken at basal and 15, 30, 60, 90 and 120 min after injection. For the pyruvate tolerance test (PTT), 1 g/kg of pyruvate was used.
Dual jugular venous cannulae and one carotid arterial cannula were implanted in rats. The rats were allowed to recover for 4 to 5 days before clamp procedure. The hyperinsulinemic euglycemic clamp experiments began with a priming injection (7.5 μCi/0.2 ml) and constant infusion (0.25 μCi/min) of D-[3-^3H] glucose (Du Pont-NEN, Boston, Mass.). After 60 min of tracer equilibration and basal sampling at t=−10 and 0 min, glucose (50% dextrose, variable infusion; Abbott) and tracer (0.25 μCi/min) plus insulin ([…]) were infused into the jugular vein. Small blood samples were drawn at 10-min intervals and immediately analyzed for glucose to maintain the integrity of the glucose clamp throughout the duration of the experiment. Blood samples were taken at t=−60 (start of experiment), −10, 0 (basal), 110, and 120 (end of experiment) min to determine glucose-specific activity and insulin, and free fatty acid (FFA). To ensure accuracy, basal and terminal sampling was performed twice at 10-min intervals. The achievement of steady-state conditions (100 mg/dl±5 mg/dl) was confirmed at the end of the clamp by measuring blood glucose every 10 min and ensuring that steady state for glucose infusion and plasma glucose levels were maintained for a minimum of 20 min. All blood samples were immediately centrifuged, and plasma was stored at −80° C. for subsequent analysis.
Following a 3-day recovery after clamp, rats were fasted 6 hours and euthanized. Tissues were harvested at basal state or acute insulin-stimulated state (5 U/kg). Insulin levels were analyzed by ELISA assay (Alpco Diagnostics). FFA levels were measured by enzymatic assay (Wako Diagnostics). Glycerol levels were measured using an assay kit from Sigma. Lactate and pyruvate assay kits were obtained from Biovision. TNFα and IL-1βwere measured by ELISA assays (Biosource).
Immunohistochemistry and quantification of crown-like structure (CLS) were done. These studies were conducted using paraffin-embedded adipose (epididymal) tissue sections from the rats incubated with MAC-2 antibody (Abcam) at a 1:100 dilution overnight at 4° C. Subsequently, biotinylated anti-rat secondary antibody (BD Bioscience) was used at 1:100 dilution, followed by 1:500 HRP-Streptavidin (Jackson ImmunoResearch) and development in substrate chromogen. Slides were counterstained with Mayer's and mounted with Vectashield mounting media with DAPI (Vector). Both bright field (MAC-2) and fluorescent photographs (DAPI) were taken of 3 representative fields per slide in a blinded fashion using a fluorescent microscope (10× objective).
Gene expression analyses used total RNA extracted from tissue with Purelink total RNA purification system (Invitrogen) following the manufacturer's protocol.

[3] = ZDF rats, 100 mg/kg/d, throughout the study, one week sufficient
[4] = euglycemic-hyperinsulinemic clamp, triol 100 mg/kg/d, rosiglitazone 10 mg/kg/d (more robust)

C#C[C@]1(O)CC[C@H]2[C@@H]3[C@@H](O)C=C4C[C@@H](O)CC[C@]4(C)[C@H]3CC[C@@]21C [17α-ethynylandrost-5-ene-3β,7β,17β-triol]
minimal effective dose ([1]; 28 days, lower degree of response than higher doses): 4 mg/day | change in M value ([1]; interim analysis, M<5, two patients treated with 20 mg/day): increased | change in M value ([1]; interim analysis, M<5 patients, 10 mg/day (5 mg twice per day) vs placebo, p=0.0286): significantly increased | change in M value ([1]; interim analysis, M<5 patients, pooled 10 mg/day or 20 mg/day vs placebo, p=0.0095): significantly increased | change in M value ([1]; interim analysis, M>5 patients, 10 mg/day, 20 mg/day or pooled vs placebo): no statistically significant difference | change in M value ([1]; interim analysis, overall protocol, 20 mg/day group, p=0.0823): trends to significance | change in M value ([1]; interim analysis, overall protocol, 'mg/day group', p=0.0513): trends to significance | change in M value ([1]; interim analysis, overall protocol, pooled patients, p=0.0278): significantly increased | M value (glucose control) ([1]; one pre-diabetic hyperglycemic patient, 28 days of dosing 4 mg/day): increased | effectiveness of treatment by M value subgroup ([1]; pre-diabetic hyperglycemic patients having M<5): most effective | change in M value ([1]; second interim analysis, M<5, 10 mg/day vs placebo, p=0.002): significantly increased | change in M value ([1]; second interim analysis, M<5, pooled 10 mg/day or 20 mg/day vs placebo, p=0.0007): highly significant positive change | change in M value ([1]; second interim analysis, M>5 patients, 10 mg/day, 20 mg/day or pooled vs placebo): no statistically significant difference | change in M value ([1]; second interim analysis, overall protocol, 10 mg/day group, p=0.04): significantly increased | change in M value ([1]; second interim analysis, overall protocol, 20 mg/day group, p=0.04): significantly increased | change in M value ([1]; second interim analysis, overall protocol, pooled patients, p=0.0109): significantly increased | intracellular triacylglycerol (TAG) content in livers ([2]; ZDF rats): marked decrease | decrease in serum cholesteryl esters ([2]; ZDF rats, 100 mg/kg/d): 59% | decrease in serum total cholesterol levels ([2]; ZDF rats, 100 mg/kg/d): 25% | gross pathology of the kidneys due to diabetes ([2]; ZDF rats, 100 mg/kg/d): greatly ameliorated | level of free cholesterol in epididymal white adipose tissue (WAT) ([2]; ZDF rats, 100 mg/kg/d): reduced | other major lipid classes in WAT ([2]; ZDF rats, 100 mg/kg/d): not significantly altered | reduction of hepatic cholesteryl ester levels ([2]; ZDF rats, 100 mg/kg/d): 73% | reduction of total cholesterol content in the liver ([2]; ZDF rats, 100 mg/kg/d): 15% | serum free cholesterol levels ([2]; ZDF rats, 100 mg/kg/d): increase | plasma insulin levels ([2]; ZDF rats, 100 mg/kg/d, one week of treatment): normalize | fasting glucose levels [2, 3]: completely normalized | fed glucose levels [2, 3]: completely normalized | adipose tissue macrophage (ATM) content, Mac-2 staining ([2]; ZDF rats, epididymal adipose tissue sections): marked reduction | HMG CoA reductase expression ([2]; ZDF rats, gene expression): increased | low density lipoprotein receptor (LDLR) expression ([2]; ZDF rats, gene expression): increased | MCP-1 in adipose tissue ([2]; ZDF rats, p<0.05): decrease | TNFα in adipose tissue ([2]; ZDF rats, p<0.05): decrease | Basal rates of hepatic glucose production (HGP) ([2]; clamp, triol 100 mg/kg/d, rosiglitazone 10 mg/kg/d): equally reduced | glucose infusion rate [2, 4]: increase | insulin-stimulated glucose disposal [2, 4]: increase
